This is an account of results in ChEMBL document CHEMBL4017490, “Design, Synthesis, and Pharmacological Evaluation of Novel Multisubstituted Pyridin-3-amine Derivatives as Multitargeted Protein Kinase Inhibitors for the Treatment of Non-Small Cell Lung Cancer” (J Med Chem, 2017).

A value given as a limit tells only on which side of the number the result lay.

The target in assay [1] is T1, Tyrosine-protein kinase receptor TYRO3 (Homo sapiens, UniProt Q06418).
T1 sequence (Q06418 whole entry): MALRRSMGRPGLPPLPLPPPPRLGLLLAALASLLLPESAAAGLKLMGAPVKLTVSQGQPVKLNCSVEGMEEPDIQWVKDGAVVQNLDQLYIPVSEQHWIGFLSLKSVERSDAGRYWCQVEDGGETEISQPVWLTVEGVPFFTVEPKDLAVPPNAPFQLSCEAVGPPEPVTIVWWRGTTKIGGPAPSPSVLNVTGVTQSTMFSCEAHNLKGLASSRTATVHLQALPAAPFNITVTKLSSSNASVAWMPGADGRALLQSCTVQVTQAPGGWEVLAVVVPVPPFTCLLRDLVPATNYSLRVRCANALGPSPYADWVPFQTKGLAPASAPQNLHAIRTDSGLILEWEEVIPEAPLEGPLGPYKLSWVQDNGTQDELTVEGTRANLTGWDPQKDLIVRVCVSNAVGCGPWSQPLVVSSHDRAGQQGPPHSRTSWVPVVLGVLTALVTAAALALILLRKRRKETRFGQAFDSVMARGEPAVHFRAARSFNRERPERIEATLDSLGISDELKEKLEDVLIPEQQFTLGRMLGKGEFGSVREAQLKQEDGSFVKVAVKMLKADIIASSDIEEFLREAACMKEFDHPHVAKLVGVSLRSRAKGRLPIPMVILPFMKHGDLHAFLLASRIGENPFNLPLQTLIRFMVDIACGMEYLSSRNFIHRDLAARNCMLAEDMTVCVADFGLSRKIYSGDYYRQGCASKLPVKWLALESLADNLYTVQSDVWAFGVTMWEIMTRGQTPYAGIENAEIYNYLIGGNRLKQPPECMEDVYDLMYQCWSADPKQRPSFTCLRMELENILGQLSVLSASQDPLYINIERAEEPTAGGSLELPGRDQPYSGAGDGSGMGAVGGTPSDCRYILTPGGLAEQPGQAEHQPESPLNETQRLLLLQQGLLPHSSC
Put plainly: Inhibition of recombinant Tyro3 (unknown origin) using poly (Glu,Tyr) 4:1 as substrate after 60 mins by ELISA.

Assay [2] addresses T2, Tyrosine-protein kinase Mer (Homo sapiens, UniProt Q12866).
T2 sequence (Q12866 whole entry): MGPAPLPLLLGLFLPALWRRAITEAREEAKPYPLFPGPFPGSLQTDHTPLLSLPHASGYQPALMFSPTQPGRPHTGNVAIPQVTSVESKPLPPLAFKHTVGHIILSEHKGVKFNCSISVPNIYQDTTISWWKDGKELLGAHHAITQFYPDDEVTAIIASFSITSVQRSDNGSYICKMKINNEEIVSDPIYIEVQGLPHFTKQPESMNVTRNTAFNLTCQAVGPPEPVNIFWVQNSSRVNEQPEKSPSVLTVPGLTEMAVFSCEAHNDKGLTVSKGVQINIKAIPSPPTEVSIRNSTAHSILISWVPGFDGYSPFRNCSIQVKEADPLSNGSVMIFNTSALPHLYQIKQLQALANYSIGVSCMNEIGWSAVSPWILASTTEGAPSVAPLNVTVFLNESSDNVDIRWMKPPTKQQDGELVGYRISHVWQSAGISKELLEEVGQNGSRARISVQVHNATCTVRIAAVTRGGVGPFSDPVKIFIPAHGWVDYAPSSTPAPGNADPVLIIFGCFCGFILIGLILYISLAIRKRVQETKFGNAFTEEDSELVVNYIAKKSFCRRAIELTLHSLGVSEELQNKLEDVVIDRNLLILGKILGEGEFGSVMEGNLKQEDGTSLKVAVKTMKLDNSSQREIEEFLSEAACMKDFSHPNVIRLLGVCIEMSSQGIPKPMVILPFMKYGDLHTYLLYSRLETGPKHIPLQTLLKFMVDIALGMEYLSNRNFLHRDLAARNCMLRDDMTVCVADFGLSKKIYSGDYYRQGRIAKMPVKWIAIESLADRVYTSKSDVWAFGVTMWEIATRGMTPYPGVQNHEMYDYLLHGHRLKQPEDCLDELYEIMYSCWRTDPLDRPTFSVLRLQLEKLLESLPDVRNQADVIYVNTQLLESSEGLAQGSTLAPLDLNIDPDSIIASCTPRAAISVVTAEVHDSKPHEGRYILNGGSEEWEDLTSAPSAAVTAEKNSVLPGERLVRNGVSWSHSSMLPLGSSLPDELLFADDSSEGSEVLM
Briefly: Inhibition of recombinant Mer (unknown origin) using poly (Glu,Tyr) 4:1 as substrate after 60 mins by ELISA. Background: ELISA stands for enzyme-linked immunosorbent assay.

Assay [3] concerns the target Leukocyte tyrosine kinase receptor (Homo sapiens, UniProt P29376). Put plainly: Inhibition of recombinant LTK (unknown origin) using poly (Glu,Tyr) 4:1 as substrate after 60 mins by ELISA.
The target of assay [4] is Proto-oncogene tyrosine-protein kinase receptor Ret (Homo sapiens, UniProt P07949). Put plainly: Inhibition of recombinant Ret (unknown origin) using poly (Glu,Tyr) 4:1 as substrate after 60 mins by ELISA.
The target in assay [5] is Epidermal growth factor receptor (Homo sapiens, UniProt P00533).
Description: Inhibition of recombinant EGFR (unknown origin) using poly (Glu,Tyr) 4:1 as substrate after 60 mins by ELISA
Assay [6] deals with Receptor tyrosine-protein kinase erbB-2 (Homo sapiens, UniProt P04626). Put plainly: Inhibition of recombinant ErbB2 (unknown origin) using poly (Glu,Tyr) 4:1 as substrate after 60 mins by ELISA.
Assay [7] deals with Platelet-derived growth factor receptor beta (Homo sapiens, UniProt P09619). Briefly: Inhibition of recombinant PDGFR-beta (unknown origin) using poly (Glu,Tyr) 4:1 as substrate after 60 mins by ELISA.
Assay [8] concerns the target Mitogen-activated protein kinase 1 (Homo sapiens, UniProt P28482). Put plainly: Inhibition of Erk2 (unknown origin) by FRET assay.
In assay [9] the target is Proto-oncogene tyrosine-protein kinase ROS (Homo sapiens, UniProt P08922). Put plainly: Inhibition of recombinant ROS1 (unknown origin) using poly (Glu,Tyr) 4:1 as substrate after 60 mins by ELISA.
The target in assay [10] is Receptor tyrosine-protein kinase erbB-4 (Homo sapiens, UniProt Q15303). Briefly: Inhibition of recombinant ErbB4 (unknown origin) using poly (Glu,Tyr) 4:1 as substrate after 60 mins by ELISA.
The target of assay [11] is Proto-oncogene tyrosine-protein kinase Src (Homo sapiens, UniProt P12931). Briefly: Inhibition of recombinant c-Src (unknown origin) using poly (Glu,Tyr) 4:1 as substrate after 60 mins by ELISA.
A further assay deals with Ephrin type-A receptor 2 (Homo sapiens, UniProt P29317). Briefly: Inhibition of recombinant EPH-A2 (unknown origin) using poly (Glu,Tyr) 4:1 as substrate after 60 mins by ELISA.
Assay [12] deals with ALK tyrosine kinase receptor (Homo sapiens, UniProt Q9UM73).
Description: Inhibition of recombinant ALK (unknown origin) using poly (Glu,Tyr) 4:1 as substrate after 60 mins by ELISA
The target in assay [13] is Cyclin-dependent kinase 1 (Homo sapiens, UniProt P06493). Put plainly: Inhibition of CDK1 (unknown origin) by FRET assay.
Assay [14] addresses Insulin-like growth factor 1 receptor (Homo sapiens, UniProt P08069). Put plainly: Inhibition of recombinant IGF1R (unknown origin) using poly (Glu,Tyr) 4:1 as substrate after 60 mins by ELISA.

By IC50 is commonly meant the concentration that gives 50% inhibition.

Sequence of Insulin-like growth factor 1 receptor (P08069 31-736 limits assumed): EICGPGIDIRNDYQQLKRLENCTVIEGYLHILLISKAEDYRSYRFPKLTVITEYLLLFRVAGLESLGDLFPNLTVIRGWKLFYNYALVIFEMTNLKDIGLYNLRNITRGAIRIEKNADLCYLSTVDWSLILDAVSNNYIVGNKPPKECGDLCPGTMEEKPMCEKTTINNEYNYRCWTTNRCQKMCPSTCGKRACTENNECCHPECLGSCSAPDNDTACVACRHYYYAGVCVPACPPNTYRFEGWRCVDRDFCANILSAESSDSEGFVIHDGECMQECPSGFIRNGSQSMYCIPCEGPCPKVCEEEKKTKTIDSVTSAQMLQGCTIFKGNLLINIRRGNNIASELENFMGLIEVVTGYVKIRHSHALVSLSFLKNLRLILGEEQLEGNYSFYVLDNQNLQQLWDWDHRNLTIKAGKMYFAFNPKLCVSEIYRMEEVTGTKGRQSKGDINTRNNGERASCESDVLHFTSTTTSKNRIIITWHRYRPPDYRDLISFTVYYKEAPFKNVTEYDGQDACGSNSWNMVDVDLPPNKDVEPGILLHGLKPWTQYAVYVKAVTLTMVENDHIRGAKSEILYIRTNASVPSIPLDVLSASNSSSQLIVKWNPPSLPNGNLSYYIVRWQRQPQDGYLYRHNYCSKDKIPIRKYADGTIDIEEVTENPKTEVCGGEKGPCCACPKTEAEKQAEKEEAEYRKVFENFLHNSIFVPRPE
Sequence of Insulin-like growth factor 1 receptor (P08069 741-1367 limits assumed): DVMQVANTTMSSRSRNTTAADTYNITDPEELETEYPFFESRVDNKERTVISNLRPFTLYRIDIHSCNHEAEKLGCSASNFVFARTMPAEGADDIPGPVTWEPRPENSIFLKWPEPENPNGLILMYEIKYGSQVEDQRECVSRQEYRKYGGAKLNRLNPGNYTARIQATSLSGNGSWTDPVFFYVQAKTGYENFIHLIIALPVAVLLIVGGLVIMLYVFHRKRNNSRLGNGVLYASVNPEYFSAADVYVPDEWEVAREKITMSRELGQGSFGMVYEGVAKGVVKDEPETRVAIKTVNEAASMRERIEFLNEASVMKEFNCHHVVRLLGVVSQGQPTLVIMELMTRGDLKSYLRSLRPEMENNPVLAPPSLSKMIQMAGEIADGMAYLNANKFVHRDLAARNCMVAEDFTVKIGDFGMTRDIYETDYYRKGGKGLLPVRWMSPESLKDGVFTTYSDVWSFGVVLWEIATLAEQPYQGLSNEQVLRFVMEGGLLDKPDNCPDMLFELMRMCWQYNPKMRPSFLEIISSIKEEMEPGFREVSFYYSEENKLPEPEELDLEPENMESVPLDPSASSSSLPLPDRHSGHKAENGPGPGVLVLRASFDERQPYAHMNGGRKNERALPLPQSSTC
Sequence of Cyclin-dependent kinase 1 (P06493 whole entry): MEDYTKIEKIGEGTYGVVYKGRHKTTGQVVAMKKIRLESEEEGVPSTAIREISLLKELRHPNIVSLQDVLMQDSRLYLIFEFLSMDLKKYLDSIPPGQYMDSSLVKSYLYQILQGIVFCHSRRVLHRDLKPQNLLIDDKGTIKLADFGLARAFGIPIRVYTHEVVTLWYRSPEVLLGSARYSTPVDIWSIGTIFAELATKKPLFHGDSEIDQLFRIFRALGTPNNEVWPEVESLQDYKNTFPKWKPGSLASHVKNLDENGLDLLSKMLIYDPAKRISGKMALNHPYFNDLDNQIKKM
Sequence of Mitogen-activated protein kinase 1 (P28482 whole entry): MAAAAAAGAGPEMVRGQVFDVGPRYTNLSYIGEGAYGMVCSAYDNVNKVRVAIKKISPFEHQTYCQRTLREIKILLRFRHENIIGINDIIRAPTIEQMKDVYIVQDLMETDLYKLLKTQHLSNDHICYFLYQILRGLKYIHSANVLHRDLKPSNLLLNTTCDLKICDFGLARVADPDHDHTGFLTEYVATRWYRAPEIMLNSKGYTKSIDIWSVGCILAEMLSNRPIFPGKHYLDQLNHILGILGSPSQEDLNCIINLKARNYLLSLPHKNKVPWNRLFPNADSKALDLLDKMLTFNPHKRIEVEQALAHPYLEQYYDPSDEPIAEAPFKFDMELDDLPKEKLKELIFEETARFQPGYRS
Sequence of Epidermal growth factor receptor (P00533 whole entry): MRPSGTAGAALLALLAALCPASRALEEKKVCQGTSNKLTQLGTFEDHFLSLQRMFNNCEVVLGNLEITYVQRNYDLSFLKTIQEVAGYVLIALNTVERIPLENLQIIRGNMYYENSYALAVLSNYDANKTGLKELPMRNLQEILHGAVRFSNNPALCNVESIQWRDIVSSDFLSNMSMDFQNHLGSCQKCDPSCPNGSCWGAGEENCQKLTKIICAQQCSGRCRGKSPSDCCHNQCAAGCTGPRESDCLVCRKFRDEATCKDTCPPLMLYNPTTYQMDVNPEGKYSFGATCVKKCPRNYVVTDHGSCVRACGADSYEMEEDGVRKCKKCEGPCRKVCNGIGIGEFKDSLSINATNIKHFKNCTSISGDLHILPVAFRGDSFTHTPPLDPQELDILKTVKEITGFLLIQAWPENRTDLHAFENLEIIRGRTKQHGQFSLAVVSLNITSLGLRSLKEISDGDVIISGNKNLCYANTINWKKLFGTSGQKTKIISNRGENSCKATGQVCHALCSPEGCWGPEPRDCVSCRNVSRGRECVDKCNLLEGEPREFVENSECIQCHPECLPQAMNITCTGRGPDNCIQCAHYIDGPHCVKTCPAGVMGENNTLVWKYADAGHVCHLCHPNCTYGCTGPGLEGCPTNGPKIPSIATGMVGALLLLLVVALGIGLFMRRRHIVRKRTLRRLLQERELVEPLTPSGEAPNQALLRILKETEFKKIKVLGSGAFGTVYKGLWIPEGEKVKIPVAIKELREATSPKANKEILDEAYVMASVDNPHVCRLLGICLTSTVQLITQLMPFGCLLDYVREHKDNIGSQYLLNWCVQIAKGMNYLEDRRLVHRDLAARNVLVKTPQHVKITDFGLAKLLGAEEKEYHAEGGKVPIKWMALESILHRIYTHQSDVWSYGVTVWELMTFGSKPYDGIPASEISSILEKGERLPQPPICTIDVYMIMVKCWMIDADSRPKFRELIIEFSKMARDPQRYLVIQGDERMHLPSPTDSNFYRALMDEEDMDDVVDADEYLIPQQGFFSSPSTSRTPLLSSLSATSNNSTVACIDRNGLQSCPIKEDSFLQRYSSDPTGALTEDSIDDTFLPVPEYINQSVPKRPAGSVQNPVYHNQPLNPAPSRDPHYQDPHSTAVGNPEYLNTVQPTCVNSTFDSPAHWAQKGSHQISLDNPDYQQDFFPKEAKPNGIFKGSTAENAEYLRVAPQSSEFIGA
Sequence of Proto-oncogene tyrosine-protein kinase Src (P12931 2-536 limits assumed): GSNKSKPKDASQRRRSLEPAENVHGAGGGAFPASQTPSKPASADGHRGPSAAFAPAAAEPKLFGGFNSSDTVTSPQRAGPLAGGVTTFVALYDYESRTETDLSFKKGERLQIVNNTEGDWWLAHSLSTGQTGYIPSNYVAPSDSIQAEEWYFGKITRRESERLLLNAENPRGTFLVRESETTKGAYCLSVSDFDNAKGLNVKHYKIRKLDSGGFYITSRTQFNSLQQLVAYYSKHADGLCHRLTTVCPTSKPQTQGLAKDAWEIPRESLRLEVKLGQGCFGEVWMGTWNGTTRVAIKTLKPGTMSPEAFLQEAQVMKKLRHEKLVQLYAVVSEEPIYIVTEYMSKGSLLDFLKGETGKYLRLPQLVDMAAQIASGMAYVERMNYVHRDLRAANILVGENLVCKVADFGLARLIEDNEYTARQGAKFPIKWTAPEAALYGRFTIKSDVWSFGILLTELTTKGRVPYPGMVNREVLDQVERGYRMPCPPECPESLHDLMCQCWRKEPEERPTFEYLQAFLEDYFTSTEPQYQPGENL
Sequence of Ephrin type-A receptor 2 (P29317 whole entry): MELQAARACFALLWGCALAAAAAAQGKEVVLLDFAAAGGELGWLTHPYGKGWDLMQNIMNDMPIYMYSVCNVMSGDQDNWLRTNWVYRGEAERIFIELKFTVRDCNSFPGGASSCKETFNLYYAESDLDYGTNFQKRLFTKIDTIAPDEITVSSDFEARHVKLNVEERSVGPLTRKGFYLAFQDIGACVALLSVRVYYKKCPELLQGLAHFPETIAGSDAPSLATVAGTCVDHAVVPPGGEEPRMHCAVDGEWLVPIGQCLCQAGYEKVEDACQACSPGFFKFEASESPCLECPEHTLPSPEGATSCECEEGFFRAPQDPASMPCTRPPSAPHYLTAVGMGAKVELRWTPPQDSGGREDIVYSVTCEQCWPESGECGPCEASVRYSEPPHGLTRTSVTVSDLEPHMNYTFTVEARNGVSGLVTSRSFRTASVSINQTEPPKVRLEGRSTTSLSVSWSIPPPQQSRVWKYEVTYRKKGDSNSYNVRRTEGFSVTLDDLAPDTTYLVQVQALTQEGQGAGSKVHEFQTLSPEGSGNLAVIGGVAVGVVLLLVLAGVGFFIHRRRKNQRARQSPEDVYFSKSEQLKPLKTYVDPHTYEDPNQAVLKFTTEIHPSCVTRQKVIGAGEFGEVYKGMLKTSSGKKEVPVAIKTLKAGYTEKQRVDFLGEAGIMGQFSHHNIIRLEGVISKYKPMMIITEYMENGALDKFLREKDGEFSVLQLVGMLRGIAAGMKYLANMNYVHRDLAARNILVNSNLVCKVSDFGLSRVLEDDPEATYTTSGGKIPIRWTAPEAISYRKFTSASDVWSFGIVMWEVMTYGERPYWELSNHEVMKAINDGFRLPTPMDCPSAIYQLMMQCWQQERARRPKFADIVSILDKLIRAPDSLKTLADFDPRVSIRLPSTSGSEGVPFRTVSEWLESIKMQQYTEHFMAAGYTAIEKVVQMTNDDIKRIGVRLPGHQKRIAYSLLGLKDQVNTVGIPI

With `Cc1n[nH]c2ccc(-c3cc(N[C@@H](CO)c4ccccc4)cnc3-c3cc(F)ccc3O)cc12`, the IC50 was over 1000 nM in assay [1]; 36.9 nM in assay [2]; 123 nM in assay [3]; 0.2 nM in [4]; 4.7 nM in [5]; over 10 nM in [6]. In addition, the IC50 is over 10 nM in assay [7]; 575 nM in [8]; over 1000 nM in assay [9]; 6.2 nM in [10]; 5.7 nM in assay [11]; over 10 nM at Ephrin type-A receptor 2. Further, the IC50 in assay [12] was 101 nM; in assay [13] it was over 1000 nM; in [14], over 1000 nM.
With `Cc1n[nH]c2ccc(-c3cc(N[C@@H](CO)c4ccccc4)cnc3-c3ccc(F)cc3O)cc12`, the IC50 in assay [1] was over 1000 nM; in [2], 7.1 nM; in [3], 68.5 nM; in [4], 0.4 nM; in [5], 8.1 nM; in assay [6], 1 to 10 nM. For the same compound, the IC50 in [7] was 1 to 10 nM; in assay [8], over 1000 nM; in [9] it was over 1000 nM; in assay [10], 2.4 nM; in assay [11] it was 6 nM; on Ephrin type-A receptor 2, over 100 nM. Also, the IC50 in [12] is 155 nM; in assay [13] it was over 1000 nM; in [14], over 1000 nM.
Consider `Cc1n[nH]c2ccc(-c3cc(N[C@@H](CO)c4ccccc4)cnc3-c3cc(Cl)ccc3O)cc12`, for which the concentration for half-maximal inhibition (IC50) in assay [1] is over 1000 nM; in [2], 30.9 nM; in assay [3] it was 300 nM; in assay [4] it was 0.7 nM; in [5], 3.1 nM; in assay [6] it was 1 to 10 nM. Moreover, the IC50 in [7] is over 100 nM; in [8] it was 960 nM; in assay [9], 273 nM; in assay [10] it was 5.3 nM; in [11], 3.9 nM; at Ephrin type-A receptor 2, over 10 nM. Besides, the concentration for half-maximal inhibition (IC50) is 231 nM in [12], over 1000 nM in [13] and over 100 nM in assay [14].
Take `OC[C@H](Nc1cnc(-c2cc(Cl)ccc2O)c(-c2ccc3cnccc3c2)c1)c1ccccc1`: the IC50 in assay [1] is over 1000 nM; in assay [2], 4.4 nM; in assay [3] it was 45.3 nM; in assay [4] it was 0.04 nM; in assay [5], 4.2 nM; in [6], 1 to 10 nM. Besides, the IC50 was 1 to 10 nM in [7]; 196 nM in [8]; 168 nM in [9]; 5 nM in assay [10]; 6.4 nM in [11]; over 100 nM on Ephrin type-A receptor 2. For the same compound, the half-inhibitory concentration (IC50) in [12] was 93.9 nM; in assay [13] it was over 1000 nM; in assay [14], over 1000 nM.
